Reference: ChEMBL document CHEMBL4354805, “Discovery of MK-8719, a Potent O-GlcNAcase Inhibitor as a Potential Treatment for Tauopathies” (J Med Chem, 2019)

Experiments:
[1] = Clearance in Wistar Han rat at 2 mg/kg, iv; format: ADME, organism-based; settings: in vivo
[2] = Volume of distribution at steady state in Wistar Han rat at 2 mg/kg, iv or 3 mg/kg, po; format: ADME, organism-based; settings: in vivo, read-out: Vdss
MDR1 = assay: Apparent permeability in pig LLC-PK1 cells transfected with MDR1; format: ADME, cell-based, Sus scrofa
[3] = biological target: T1, Beta-hexosaminidase subunit beta (Homo sapiens, UniProt P07686); assay: Inhibition of human beta hexosaminidase assessed as inhibitory constant using 4-methylumbelliferyl N-acetyl-beta-D-glucosaminide dihydrate as substrate measured every 60 sec for 45 mins by fluorescence spectrophotometry
T1 sequence (P07686 whole entry): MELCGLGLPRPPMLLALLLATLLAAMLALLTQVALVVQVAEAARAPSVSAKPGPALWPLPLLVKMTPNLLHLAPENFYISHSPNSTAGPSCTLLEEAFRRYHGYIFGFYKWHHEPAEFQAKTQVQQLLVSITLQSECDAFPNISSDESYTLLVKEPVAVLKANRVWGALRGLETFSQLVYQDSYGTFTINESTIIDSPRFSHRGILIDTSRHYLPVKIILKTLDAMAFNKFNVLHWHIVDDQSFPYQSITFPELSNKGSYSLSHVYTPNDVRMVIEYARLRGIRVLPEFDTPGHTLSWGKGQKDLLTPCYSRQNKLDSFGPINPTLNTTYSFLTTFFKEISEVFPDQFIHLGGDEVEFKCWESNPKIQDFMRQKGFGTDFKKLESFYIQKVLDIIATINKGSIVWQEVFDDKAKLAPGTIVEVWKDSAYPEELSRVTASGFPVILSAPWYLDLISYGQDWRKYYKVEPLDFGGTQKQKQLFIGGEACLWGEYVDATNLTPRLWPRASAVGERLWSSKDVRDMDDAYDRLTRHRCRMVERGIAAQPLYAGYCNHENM

[4] = Oral bioavailability in Wistar Han rat at 3 mg/kg; format: ADME, organism-based; settings: in vivo
[5] = Half life in Wistar Han rat at 2 mg/kg, iv; format: ADME, organism-based; settings: in vivo
[6] = AUCN in Wistar Han rat at 3 mg/kg, po; format: ADME, organism-based; settings: in vivo
Protein O-GlcNAcase [7] = biological target: T2, Protein O-GlcNAcase (Homo sapiens, UniProt O60502); assay: Inhibition of recombinant human OGA
T2 sequence (O60502 whole entry): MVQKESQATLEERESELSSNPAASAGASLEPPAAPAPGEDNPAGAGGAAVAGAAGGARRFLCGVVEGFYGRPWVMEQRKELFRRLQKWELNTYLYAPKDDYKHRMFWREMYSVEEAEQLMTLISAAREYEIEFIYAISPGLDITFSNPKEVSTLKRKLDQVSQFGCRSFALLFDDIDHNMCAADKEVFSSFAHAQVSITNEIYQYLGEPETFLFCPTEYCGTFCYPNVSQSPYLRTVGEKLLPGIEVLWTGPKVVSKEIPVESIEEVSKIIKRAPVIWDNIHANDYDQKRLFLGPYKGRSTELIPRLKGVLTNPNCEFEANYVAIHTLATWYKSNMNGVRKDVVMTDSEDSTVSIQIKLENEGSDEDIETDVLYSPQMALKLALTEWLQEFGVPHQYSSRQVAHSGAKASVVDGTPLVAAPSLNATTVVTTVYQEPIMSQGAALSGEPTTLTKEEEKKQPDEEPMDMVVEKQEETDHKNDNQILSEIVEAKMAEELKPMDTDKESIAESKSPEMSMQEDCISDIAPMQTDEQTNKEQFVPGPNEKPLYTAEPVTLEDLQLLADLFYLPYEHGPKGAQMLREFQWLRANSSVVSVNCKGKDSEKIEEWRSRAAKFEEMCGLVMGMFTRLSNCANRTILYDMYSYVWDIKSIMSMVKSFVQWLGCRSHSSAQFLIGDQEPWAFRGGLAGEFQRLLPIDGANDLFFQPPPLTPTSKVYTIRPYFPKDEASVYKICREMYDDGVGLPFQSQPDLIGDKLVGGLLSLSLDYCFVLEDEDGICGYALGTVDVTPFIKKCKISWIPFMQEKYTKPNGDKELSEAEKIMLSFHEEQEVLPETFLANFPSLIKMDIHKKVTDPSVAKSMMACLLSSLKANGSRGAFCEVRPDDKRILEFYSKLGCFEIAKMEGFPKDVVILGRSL

Cytochrome P450 3A4 = Cytochrome P450 3A4 (Homo sapiens, UniProt P08684); assay: Inhibition of CYP3A4 (unknown origin); format: ADME
Cytochrome P450 2D6 = Cytochrome P450 2D6 (Homo sapiens, UniProt P10635); assay: Inhibition of CYP2D6 (unknown origin); format: ADME
[8] = biological target: Voltage-gated inwardly rectifying potassium channel KCNH2 (Homo sapiens, UniProt Q12809); assay: Displacement of MK-0499 from human ERG
Cytochrome P450 2C9 = Cytochrome P450 2C9 (Homo sapiens, UniProt P11712); assay: Inhibition of CYP2C9 (unknown origin); format: ADME
[9] = biological target: T3, Nuclear receptor subfamily 1 group I member 2 (Homo sapiens, UniProt O75469); assay: Activation of PXR (unknown origin) assessed as CYP3A4 induction
T3 sequence (O75469 whole entry): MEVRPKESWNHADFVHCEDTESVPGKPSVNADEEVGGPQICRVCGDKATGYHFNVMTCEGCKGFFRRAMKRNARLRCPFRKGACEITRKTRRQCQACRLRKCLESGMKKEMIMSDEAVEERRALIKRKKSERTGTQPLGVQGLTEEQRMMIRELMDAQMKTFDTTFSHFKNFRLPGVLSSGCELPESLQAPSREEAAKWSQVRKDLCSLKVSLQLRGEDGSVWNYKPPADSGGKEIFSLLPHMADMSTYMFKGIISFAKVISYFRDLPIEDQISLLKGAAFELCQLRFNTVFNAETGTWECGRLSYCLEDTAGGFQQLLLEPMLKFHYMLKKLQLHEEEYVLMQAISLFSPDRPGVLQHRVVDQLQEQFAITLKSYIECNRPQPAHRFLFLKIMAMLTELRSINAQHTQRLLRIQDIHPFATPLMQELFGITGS

[10] = biological target: Voltage-dependent L-type calcium channel subunit alpha-1C (Homo sapiens, UniProt Q13936); assay: Inhibition of Cav1.2 (unknown origin)
[11] = biological target: Sodium channel protein type 5 subunit alpha (Homo sapiens, UniProt Q14524); assay: Inhibition of Nav1.5 (unknown origin)
Protein O-GlcNAcase [12] = biological target: T4, Protein O-GlcNAcase (Rattus norvegicus, UniProt Q8VIJ5); assay: Inhibition of OGA in rat PC12 cells assessed as OGlcNAcylated protein level incubated for 24 hrs by ELISA; format: cell-based
T4 sequence (Q8VIJ5 whole entry): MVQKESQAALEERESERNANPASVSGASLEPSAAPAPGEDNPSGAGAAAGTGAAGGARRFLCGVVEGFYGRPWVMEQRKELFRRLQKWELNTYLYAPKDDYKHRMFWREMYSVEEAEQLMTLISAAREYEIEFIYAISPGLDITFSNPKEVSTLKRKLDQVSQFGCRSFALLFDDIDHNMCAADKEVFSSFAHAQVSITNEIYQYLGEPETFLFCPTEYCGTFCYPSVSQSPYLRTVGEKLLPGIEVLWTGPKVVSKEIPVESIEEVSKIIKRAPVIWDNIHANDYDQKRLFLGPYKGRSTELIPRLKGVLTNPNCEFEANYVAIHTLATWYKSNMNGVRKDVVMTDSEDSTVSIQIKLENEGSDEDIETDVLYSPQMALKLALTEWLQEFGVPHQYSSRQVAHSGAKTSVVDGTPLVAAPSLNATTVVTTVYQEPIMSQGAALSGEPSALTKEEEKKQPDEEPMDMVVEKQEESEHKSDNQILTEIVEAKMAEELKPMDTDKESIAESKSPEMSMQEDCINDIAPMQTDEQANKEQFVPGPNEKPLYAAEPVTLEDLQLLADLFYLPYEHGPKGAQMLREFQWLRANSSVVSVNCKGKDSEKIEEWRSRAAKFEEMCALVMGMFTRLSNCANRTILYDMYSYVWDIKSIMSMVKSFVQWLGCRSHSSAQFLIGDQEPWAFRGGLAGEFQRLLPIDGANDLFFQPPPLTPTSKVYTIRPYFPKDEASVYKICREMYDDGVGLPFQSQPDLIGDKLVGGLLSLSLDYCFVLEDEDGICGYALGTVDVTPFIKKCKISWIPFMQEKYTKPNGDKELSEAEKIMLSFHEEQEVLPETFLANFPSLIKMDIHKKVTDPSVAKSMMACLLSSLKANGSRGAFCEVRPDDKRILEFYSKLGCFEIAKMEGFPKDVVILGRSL

Chain of Cytochrome P450 2D6 (P10635 whole entry): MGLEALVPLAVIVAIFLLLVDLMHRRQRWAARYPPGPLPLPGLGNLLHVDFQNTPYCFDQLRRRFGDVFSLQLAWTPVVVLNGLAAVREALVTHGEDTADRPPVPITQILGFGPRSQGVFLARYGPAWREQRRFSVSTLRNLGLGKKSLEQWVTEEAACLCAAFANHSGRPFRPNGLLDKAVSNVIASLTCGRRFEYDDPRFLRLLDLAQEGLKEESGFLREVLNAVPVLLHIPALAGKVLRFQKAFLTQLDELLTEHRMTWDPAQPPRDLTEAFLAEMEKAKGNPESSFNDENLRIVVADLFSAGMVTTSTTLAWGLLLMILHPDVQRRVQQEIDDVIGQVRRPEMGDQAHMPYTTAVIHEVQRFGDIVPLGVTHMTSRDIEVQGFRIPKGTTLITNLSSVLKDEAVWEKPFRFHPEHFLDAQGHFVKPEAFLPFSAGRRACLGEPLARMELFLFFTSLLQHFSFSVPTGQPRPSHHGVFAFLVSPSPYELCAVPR
Chain of Cytochrome P450 2C9 (P11712 whole entry): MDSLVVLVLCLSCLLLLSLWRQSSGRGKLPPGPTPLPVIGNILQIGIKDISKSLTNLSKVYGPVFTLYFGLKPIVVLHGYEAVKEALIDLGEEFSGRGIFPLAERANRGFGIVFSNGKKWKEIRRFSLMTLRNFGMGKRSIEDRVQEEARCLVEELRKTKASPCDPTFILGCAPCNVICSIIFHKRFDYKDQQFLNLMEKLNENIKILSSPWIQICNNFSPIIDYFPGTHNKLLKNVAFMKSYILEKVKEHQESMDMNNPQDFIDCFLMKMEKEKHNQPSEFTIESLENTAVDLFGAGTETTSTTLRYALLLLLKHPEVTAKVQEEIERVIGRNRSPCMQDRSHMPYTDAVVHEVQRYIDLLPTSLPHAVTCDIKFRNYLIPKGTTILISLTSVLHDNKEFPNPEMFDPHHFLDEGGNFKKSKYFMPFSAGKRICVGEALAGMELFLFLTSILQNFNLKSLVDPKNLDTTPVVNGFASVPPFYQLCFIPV
Chain of Sodium channel protein type 5 subunit alpha (Q14524 whole entry): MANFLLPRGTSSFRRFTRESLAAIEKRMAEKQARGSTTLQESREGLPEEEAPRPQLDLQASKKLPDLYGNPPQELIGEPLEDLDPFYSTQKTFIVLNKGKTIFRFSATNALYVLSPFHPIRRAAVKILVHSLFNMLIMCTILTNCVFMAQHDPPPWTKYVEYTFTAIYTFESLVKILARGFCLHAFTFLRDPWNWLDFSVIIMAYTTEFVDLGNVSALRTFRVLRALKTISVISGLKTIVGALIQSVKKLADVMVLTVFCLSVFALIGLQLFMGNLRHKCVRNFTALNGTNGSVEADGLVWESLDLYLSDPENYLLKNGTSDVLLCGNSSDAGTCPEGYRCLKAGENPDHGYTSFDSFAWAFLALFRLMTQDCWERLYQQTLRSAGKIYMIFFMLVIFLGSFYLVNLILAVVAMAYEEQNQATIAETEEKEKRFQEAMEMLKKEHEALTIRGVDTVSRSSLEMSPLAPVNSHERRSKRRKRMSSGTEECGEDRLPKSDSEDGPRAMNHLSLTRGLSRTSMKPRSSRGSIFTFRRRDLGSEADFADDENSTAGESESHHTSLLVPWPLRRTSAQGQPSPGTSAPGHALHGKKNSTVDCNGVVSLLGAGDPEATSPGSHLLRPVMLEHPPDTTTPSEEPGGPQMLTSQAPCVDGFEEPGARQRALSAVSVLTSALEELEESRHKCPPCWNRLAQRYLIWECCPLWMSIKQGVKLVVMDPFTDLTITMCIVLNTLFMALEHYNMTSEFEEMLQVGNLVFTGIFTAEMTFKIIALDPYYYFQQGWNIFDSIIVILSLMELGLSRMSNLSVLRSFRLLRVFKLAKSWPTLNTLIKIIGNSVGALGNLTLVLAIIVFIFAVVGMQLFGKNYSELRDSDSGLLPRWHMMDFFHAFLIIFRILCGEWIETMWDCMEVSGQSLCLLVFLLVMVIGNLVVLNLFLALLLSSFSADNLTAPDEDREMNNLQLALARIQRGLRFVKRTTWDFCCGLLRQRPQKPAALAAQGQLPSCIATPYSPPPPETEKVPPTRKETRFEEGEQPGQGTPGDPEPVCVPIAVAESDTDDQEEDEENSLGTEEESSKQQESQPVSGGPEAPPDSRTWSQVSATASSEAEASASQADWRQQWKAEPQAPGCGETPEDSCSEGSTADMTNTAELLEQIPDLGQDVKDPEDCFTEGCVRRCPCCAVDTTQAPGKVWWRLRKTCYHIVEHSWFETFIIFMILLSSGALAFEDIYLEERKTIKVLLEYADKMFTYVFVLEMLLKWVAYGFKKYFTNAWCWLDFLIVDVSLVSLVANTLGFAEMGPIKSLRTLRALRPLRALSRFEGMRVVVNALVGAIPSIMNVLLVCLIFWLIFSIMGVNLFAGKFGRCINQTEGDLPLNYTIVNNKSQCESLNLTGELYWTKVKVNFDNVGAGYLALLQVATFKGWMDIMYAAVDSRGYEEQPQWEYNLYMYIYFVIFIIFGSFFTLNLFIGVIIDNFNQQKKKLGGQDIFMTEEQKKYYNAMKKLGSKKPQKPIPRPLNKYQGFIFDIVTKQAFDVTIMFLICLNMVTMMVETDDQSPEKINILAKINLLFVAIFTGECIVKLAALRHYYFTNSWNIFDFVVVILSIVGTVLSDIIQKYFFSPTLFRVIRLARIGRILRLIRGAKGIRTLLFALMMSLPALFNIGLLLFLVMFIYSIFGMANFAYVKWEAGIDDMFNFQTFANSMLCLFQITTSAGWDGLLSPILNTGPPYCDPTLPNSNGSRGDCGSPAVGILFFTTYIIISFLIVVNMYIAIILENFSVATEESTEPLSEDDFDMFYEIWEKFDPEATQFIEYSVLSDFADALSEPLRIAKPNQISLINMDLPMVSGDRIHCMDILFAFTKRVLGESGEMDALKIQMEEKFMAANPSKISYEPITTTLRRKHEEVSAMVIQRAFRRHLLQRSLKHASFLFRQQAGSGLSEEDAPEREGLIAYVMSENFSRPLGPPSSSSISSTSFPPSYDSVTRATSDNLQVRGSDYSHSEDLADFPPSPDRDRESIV
Chain of Voltage-gated inwardly rectifying potassium channel KCNH2 (Q12809 whole entry): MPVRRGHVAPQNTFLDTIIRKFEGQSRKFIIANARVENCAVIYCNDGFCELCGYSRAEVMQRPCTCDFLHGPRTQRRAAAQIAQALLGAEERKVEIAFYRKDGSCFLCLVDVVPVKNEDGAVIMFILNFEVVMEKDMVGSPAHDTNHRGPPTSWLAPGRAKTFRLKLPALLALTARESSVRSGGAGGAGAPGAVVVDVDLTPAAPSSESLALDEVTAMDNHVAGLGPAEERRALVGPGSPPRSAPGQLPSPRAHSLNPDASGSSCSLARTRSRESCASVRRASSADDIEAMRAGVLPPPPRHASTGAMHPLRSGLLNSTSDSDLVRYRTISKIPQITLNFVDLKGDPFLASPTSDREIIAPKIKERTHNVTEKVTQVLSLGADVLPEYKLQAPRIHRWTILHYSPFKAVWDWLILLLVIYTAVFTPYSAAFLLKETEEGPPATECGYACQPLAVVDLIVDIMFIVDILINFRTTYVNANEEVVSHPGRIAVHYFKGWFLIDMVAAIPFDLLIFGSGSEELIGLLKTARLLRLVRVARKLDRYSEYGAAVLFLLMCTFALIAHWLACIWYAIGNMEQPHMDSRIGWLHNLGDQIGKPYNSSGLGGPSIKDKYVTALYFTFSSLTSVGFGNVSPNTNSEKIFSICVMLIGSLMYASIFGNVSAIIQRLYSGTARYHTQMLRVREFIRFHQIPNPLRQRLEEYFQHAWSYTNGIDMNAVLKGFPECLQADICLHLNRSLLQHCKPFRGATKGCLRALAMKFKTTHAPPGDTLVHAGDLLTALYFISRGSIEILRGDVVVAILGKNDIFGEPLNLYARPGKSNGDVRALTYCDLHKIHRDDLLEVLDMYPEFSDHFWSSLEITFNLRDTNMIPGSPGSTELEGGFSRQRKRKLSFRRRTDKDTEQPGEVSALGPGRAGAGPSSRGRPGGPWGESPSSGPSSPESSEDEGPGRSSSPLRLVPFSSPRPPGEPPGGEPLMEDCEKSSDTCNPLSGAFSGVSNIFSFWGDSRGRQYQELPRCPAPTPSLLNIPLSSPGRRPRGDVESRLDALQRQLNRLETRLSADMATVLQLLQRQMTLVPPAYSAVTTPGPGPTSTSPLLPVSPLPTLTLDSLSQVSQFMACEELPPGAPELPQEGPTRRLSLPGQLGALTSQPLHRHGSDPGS
Chain of Cytochrome P450 3A4 (P08684 whole entry): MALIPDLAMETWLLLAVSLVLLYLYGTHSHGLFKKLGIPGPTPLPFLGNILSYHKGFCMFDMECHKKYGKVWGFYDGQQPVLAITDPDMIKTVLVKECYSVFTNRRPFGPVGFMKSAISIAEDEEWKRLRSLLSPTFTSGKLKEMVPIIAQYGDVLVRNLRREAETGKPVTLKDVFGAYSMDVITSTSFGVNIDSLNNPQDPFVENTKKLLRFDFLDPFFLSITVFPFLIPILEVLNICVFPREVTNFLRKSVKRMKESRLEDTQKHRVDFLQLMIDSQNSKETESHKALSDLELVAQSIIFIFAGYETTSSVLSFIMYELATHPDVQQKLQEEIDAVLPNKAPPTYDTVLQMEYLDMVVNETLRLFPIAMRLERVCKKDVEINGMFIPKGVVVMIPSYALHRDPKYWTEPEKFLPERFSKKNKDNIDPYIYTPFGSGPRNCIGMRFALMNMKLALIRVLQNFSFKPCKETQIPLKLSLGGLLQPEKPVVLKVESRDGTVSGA

SMILES	Papp (MDR1) [×10⁻⁶ cm/s]	Ki [3] [nM]	Ki (Protein O-GlcNAcase [7]) [nM]	further results
OC[C@H]1O[C@@H]2SC(N3CC(F)C3)=N[C@@H]2[C@@H](O)[C@@H]1O	–	–	> 3000	–
CCNC1=N[C@@H]2[C@@H](O)[C@H](O)[C@@H](C)O[C@@H]2S1	–	–	69	IC50 (Cytochrome P450 3A4): > 50000 nM; IC50 (Cytochrome P450 2D6): > 50000 nM; IC50 [8]: > 30000 nM; IC50 (Cytochrome P450 2C9): > 50000 nM; EC50 [9]: > 30000 nM; IC50 [10]: > 30000 nM; IC50 [11]: > 30000 nM
C=CCNC1=N[C@@H]2[C@@H](O)[C@H](O)[C@@H](CF)O[C@@H]2S1	–	> 10000	180	–
O[C@H]1[C@H](O)[C@@H](C(F)F)O[C@@H]2SC(N3CCC3)=N[C@H]12	18	> 10000	26	–
CCCNC1=N[C@@H]2C[C@H](O)[C@@H](CO)O[C@@H]2S1	2.5	> 10000	50	EC50 (Protein O-GlcNAcase [12]): 224 nM
OC[C@H]1O[C@@H]2SC(N3CC[C@@H](F)C3)=N[C@@H]2[C@@H](O)[C@@H]1O	–	> 10000	–	–
OC[C@H]1O[C@@H]2SC(NCCF)=N[C@@H]2[C@@H](O)[C@@H]1O	2.2	> 10000	5.6	clearance [1]: 33.6 mL/min/kg; Vd [2]: 1.33 L/kg; EC50 (Protein O-GlcNAcase [12]): 509 nM; bioavailability [4]: 48.6%; half-life [5]: 1.29 h; AUC/dose [6]: 0.903 µM·kg·h/mg

Further lines, with some results ahead:

Papp (MDR1) [×10⁻⁶ cm/s]	Ki [3] [nM]	Ki (Protein O-GlcNAcase [7]) [nM]	SMILES	further results
0.8	4500	–	C=CCN(C)C1=N[C@@H]2[C@@H](O)[C@H](O)[C@@H](CO)O[C@@H]2S1	clearance [1]: 45.8 mL/min/kg; Vd [2]: 16.1 L/kg; bioavailability [4]: 108%; half-life [5]: 4.03 h; AUC/dose [6]: 0.538 µM·kg·h/mg
–	> 10000	–	OC[C@H]1O[C@@H]2SC(N3CCCC3)=N[C@@H]2[C@@H](O)[C@@H]1O	–
–	> 10000	–	CN(C)C1=N[C@@H]2C[C@H](O)[C@@H](CO)O[C@@H]2S1	clearance [1]: 25.7 mL/min/kg; Vd [2]: 2.49 L/kg; bioavailability [4]: 80.1%; half-life [5]: 1.95 h; AUC/dose [6]: 2.26 µM·kg·h/mg
–	8100	3	CNC1=N[C@@H]2[C@@H](F)[C@H](O)[C@@H](CO)O[C@@H]2S1	EC50 (Protein O-GlcNAcase [12]): 307 nM
22	> 10000	58	CNC1=N[C@@H]2[C@@H](F)[C@H](O)[C@@H](C(F)F)O[C@@H]2S1	–
12	> 10000	74	C=CCNC1=N[C@@H]2[C@@H](O)[C@H](O)[C@@H](C(F)F)O[C@@H]2S1	–
